Here are results for 20 molecules from patent publication US10316039B2, “P2X3 and/or P2X2/3 compounds and methods” (Asana Biosciences, LLC, priority 2013, dated 2019).

Each structure is given as a SMILES string.

For one assay, the target named is T1, P2X3 (UniProt P56373).
T1 sequence (P56373 1-397): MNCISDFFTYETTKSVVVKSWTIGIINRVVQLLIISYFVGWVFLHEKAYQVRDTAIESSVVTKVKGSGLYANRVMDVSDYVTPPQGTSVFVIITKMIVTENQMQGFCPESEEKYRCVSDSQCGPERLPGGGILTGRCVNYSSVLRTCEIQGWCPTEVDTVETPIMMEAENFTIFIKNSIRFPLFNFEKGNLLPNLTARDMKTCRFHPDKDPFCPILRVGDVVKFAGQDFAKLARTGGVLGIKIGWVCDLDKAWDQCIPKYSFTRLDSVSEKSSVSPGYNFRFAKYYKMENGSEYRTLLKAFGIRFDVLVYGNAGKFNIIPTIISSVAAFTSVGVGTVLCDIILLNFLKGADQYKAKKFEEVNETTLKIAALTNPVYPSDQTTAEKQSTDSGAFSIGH
Description: P2X3 FLIPR intracellular calcium assay. The class given is cell-based. Conditions: agonist at EC75, species (human or rat) not given. From the text: The FLIPR® assay utilizes cells which express human or rat P2X3 or P2X2/3 receptors. […] The PCR product obtained containing the protein coding sequence of rat P2X2 was cloned into EcoRV-digested and dephosphorylated vector pIRES-puro3 within the multiple cloning site (MCS). See, FIG. 1A.
Rat P2X3 (NCBI Accession No: X91167) was amplified by PCR from rat brain cDNA. The PCR product obtained containing the protein coding sequence of rat P2X3 was cloned into EcoRV-digested and dephosphorylated vector pCDNA-Hygro within the multiple cloning site (MCS) (FIG. 1B). Rat P2X3 cloned into pcDNA-Hygro was then subcloned into pcDNA-5/TO at HindIII (5′) and XhoI (3′) sites within the multiple cloning site (MCS) of the vector (FIG. 1C).
(§1) Transfection was carried out using super-coiled constructs (purified using QIAGEN kit) in antibiotic free, serum free DMEM using Lipofectamine® 2000 (Invitrogen) transfection agent. The DNA constructs rat P2X2 in pIRES-Puro3 and rat P2X3 in pCDNA5/TO were co-transfected into TRex293 cells in order to generate the rP2X2/3 stable line. 50 μg/mL hygromycin (Invitrogen) and 0.5 μg/mL puromycin (Fermentek) were used for selection of stable clones of rP2X2/3. Rat P2X3 in pCDNA5/TO DNA construct was transfected to CHO-TRex cells to generate the rP2×3 stable line and 500 μg/mL hygromycin (Invitrogen) was used as selection antibiotic. Transfected stable colonies were then functionally verified and robust clones suitable for assay were clonally purified through dilutions.
(§2) Cryo-vial containing 6×10^6 cells (human P2X3-HEK/human P2X2/3-TRex293/rat P2X2/3-TRex293/rat P2X3 TRex-CHO) was thawed in a 37° C. water bath. Cells were suspended in 20 mL of respective cell plating media (See annexure for composition) in a 50 mL centrifuge tube. The cell viability was checked with the help of Trypan Blue dye. Upon washing, cells were plated in a black 384-well clear bottomed, sterile poly-D-lysine coated plate such that, each well contained 10,000 cells (15,000/well for hP2X3) in 30 μL cell plating media. The plate was incubated in a 5% CO2 incubator at 37° C. for 24 h.
(§3) The next day, prior to the assay, the cell plating media was removed from each well by decanting and gentle tapping. Thirty μL of FLIPR Calcium 4 dye solution was added to each well. The plate was incubated at 37° C. for 45 min (60 min for hP2X3). The plate was next equilibrated at room temperature for 15 minutes before placing it in a 384 well FLIPR for the assay.
Dilutions were mixed with assay buffer just before performing the assay.
(§4) Compounds were added to the respective wells of the assay-ready cell plate with the help of the FLIPR and fluorescence readings were captured for 5 min to observe any possible agonistic property of the compounds. The plate was then incubated at room temperature for 15 min. The cells were stimulated with respective agonist EC75 concentration and the fluorescence readings were captured for another 5 min by FLIPR. The difference in fluorescence readings in presence of the compounds were compared with that of the control wells (wells having no compound) to calculate the inhibitory potency of the compounds. The IC50 values of the compounds were determined using the Graph pad Prism software.
(vi) Dye Solution Composition • 1×FLIPR Calcium 4 dye in assay buffer (Molecular devices Cat# R8141) • 1.8 mM Probenecid (Sigma Cat# P8761) • pH adjusted to 7.4
In general terms: Calcium assays in cells follow changes in intracellular calcium, usually with a dye or a luminescent sensor.

The target of the next assay is T2, P2X2/3 (Homo sapiens, UniProt P56373+Q9UBL9).
T2 sequence (Q9UBL9 1-471): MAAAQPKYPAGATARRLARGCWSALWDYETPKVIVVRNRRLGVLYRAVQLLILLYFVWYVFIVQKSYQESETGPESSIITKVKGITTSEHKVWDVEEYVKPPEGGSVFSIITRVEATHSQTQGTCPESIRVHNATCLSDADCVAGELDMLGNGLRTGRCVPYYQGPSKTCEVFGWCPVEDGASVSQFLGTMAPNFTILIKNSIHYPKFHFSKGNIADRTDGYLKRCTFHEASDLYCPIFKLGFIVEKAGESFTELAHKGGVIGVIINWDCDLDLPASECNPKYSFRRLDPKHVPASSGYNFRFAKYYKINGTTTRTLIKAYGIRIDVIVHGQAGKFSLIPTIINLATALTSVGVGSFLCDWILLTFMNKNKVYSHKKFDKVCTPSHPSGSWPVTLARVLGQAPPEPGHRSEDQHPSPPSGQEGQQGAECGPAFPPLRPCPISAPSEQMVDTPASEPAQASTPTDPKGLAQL
T2 sequence (P56373 1-397): T1 sequence (P56373 1-397)
In words: P2X2/3 FLIPR intracellular calcium assay. Conditions: agonist at EC75, species (human or rat) not given. The class given is cell-based.
Source text: The FLIPR® assay utilizes cells which express human or rat P2X3 or P2X2/3 receptors. Recombinant cells expressing hP2X3 (Cat#6188) and hP2X2/3 (Cat#6179) were procured from Chantest Corp. Rat P2X2 (NCBI Accession No: U14414) was amplified by PCR from PC12 cDNA (a rat adrenal medulla cell line). The PCR product obtained containing the protein coding sequence of rat P2X2 was cloned into EcoRV-digested and dephosphorylated vector pIRES-puro3 within the multiple cloning site (MCS). See, FIG. 1A.
as §1, §2, §3
Compounds were dissolved in DMSO and serially diluted following 11 point half log (3.16 fold) dilution with a starting concentration of 2 mM. Dilutions were mixed with assay buffer just before performing the assay.
as §4
(ii) Cell Plating Media for hP2X3-HEK and hP2X2/3-TRex293 Cells • DMEM/F12 (1:1) HAM media (Invitrogen; Cat#11039) • 1×NEAA (Invitrogen; Cat#11140) • 25 mM HEPES (Invitrogen; Cat#15630) • 1 mM sodium pyruvate (Invitrogen; Cat#11360) • 10% tetracycline negative FBS (PAA; Cat# A15-209) • 1 μg/mL doxycycline (Clontech; Cat#63131) [for hP2X2/3-TRex293 cells only]
(iii) Cell Plating Media for rP2X2/3-TRex293 Cells • DMEM media (Invitrogen; Cat#11965) • 25 mM HEPES (Invitrogen; Cat#15630) • 10% tetracycline negative FBS (PAA; Cat# A15-209) • 1 μg/mL Doxycycline (Clontech; Cat#63131)
(v) Assay Buffer Composition • HBSS (Invitrogen Cat#14025) • 20 mM HEPES (Invitrogen Cat#15630) • 0.01% F127 (Sigma Cat# P2443) • 1.8 mM CaCl2 (Sigma Cat# C5080) • pH adjusted to 7.4 […]

A word on the IC50: it is the concentration that gives 50% inhibition.

As to `Cc1ccc(CNC(=O)c2cc(N3CCN(C(N)=O)CC3)c3ncc(-c4ccc(C)s4)n3c2)cn1` [Example 13, 8-(4-Carbamoylpiperazin-1-yl)-N-((6-methylpyridin-3-yl)methyl)-3-(5-methylthiophen-2-yl)imidazo[1,2-a]pyridine-6-carboxamide], the half-inhibitory concentration (IC50) was more than 10000 nM on P2X3 and 100 to 1000 nM at P2X2/3.

On to `Cc1ccc(-c2cnc3c(-n4nncc4C(F)F)cc(C(=O)N[C@@H](C)c4nnco4)cn23)s1` [Example 14, (S)—N-(1-(1,3,4-Oxadiazol-2-yl)ethyl)-8-(5-(difluoromethyl)-1H-1,2,3-triazol-1-yl)-3-(5-methylthiophen-2-yl)imidazo[1,2-a]pyridine-6-carboxamide], for which the values for the 50% inhibitory concentration (IC50) on P2X3 and at P2X2/3 were 1 to 100 nM and 100 to 1000 nM, respectively.

Regarding `Cc1ccccc1-c1cnc2c(N3CCC(C)CC3)cc(C(=O)N[C@@H](C)c3nnc[nH]3)cn12` [Example 15, (S)—N-(1-(4H-1,2,4-Triazol-3-yl)ethyl)-8-(4-methylpiperidin-1-yl)-3-(o-tolyl)imidazo[1,2-a]pyridine-6-carboxamide], the half-inhibitory concentration (IC50) at P2X3 is 100 to 1000 nM; at P2X2/3, 1000 to 10000 nM.

In the case of `Cc1ccc(CNC(=O)c2cc(-n3nnnc3C3CC3)c3ncc(-c4ccc(C)s4)n3c2)cn1` [Example 16, 8-(5-Cyclopropyl-1H-tetrazol-1-yl)-N-((6-methylpyridin-3-yl)methyl)-3-(5-methylthiophen-2-yl)imidazo[1,2-a]pyridine-6-carboxamide], the concentration for half-maximal inhibition (IC50) at P2X3 was more than 10000 nM; on P2X2/3, 100 to 1000 nM.

As for `Cc1ccc(CNC(=O)c2cc(-n3nnnc3CO)c3ncc(-c4ccc(C)s4)n3c2)cn1` [Example 17, 8-(5-(Hydroxymethyl)-1H-tetrazol-1-yl)-N-((6-methylpyridin-3-yl)methyl)-3-(5-methylthiophen-2-yl)imidazo[1,2-a]pyridine-6-carboxamide], the half-maximal inhibitory concentration (IC50) at P2X3 and at P2X2/3 was 100 to 1000 nM each time.

As to `Cc1ccc(CNC(=O)c2cc(-n3nnnc3C(F)F)c3ncc(-c4ccc(C)s4)n3c2)cn1` [Example 18, 8-(5-(Difluoromethyl)-1H-tetrazol-1-yl)-N-((6-methylpyridin-3-yl)methyl)-3-(5-methylthiophen-2-yl)imidazo[1,2-a]pyridine-6-carboxamide], the IC50 on P2X3 and on P2X2/3 was 1 to 100 nM each time.

In the case of `Cc1ccc(-c2cnc3c(N(C)C(=O)C(C)C)cc(C(=O)N[C@@H](C)c4nnc[nH]4)cn23)s1` [Example 20, (S)—N-(1-(4H-1,2,4-Triazol-3-yl)ethyl)-8-(N-methylisobutyramido)-3-(5-methylthiophen-2-yl)imidazo[1,2-a]pyridine-6-carboxamide], the IC50 lay within 1 to 100 nM on P2X3 and 100 to 1000 nM on P2X2/3.

For the molecule `CCc1nnc(-c2cc(C(=O)NCc3ccc(C)nc3)cn3c(-c4ccc(C)s4)cnc23)o1` [Example 21], the concentration for half-maximal inhibition (IC50) at P2X3 lay in the range of 1 to 100 nM; on P2X2/3 it was 100 to 1000 nM.

`CCc1cnnn1-c1cc(C(=O)N[C@@H](C)c2nnc[nH]2)cn2c(-c3ccc(C)s3)cnc12` [Example 23]: the IC50 at P2X3 was in the range of 1 to 100 nM; at P2X2/3, 100 to 1000 nM.

For the molecule `CCc1cnnn1-c1cc(C(=O)NCc2cnc(C)cn2)cn2c(-c3ccc(C)s3)cnc12` [Example 24], the IC50 at P2X3 and on P2X2/3 was 1 to 100 nM in each case.

As for `Cc1ccc(CNC(=O)c2cc(-n3nncc3C3CC3)c3ncc(-c4ccc(C)s4)n3c2)cn1` [Example 25], the IC50 on P2X3 and on P2X2/3 was 1 to 100 nM each time.

On to `Cc1ccc(-c2cnc3c(-n4nncc4C(F)(F)F)cc(C(=O)N[C@@H](C)c4nnc[nH]4)cn23)s1` [Example 26], for which the IC50 at P2X3 and on P2X2/3 was 1 to 100 nM each time.

`Cc1ccc(CNC(=O)c2cc(-n3nncc3C)c3ncc(-c4ccc(C)s4)n3c2)cn1` [Example 28]: the IC50 at P2X3 and at P2X2/3 was 1 to 100 nM in each case.

As to `Cc1ccc(-c2cnc3c(-n4nncc4C)cc(C(=O)N[C@@H](C)c4nnc[nH]4)cn23)s1` [Example 29], the IC50 is 1 to 100 nM at P2X3 and 100 to 1000 nM at P2X2/3.

In the case of `Cc1ccc(CNC(=O)c2cc(-n3nncc3C(F)(F)F)c3ncc(-c4ccc(C)s4)n3c2)cn1` [Example 30], the IC50 on P2X3 and on P2X2/3 was 1 to 100 nM in each case.

As for `Cc1ncc(CNC(=O)c2cc(-n3nncc3C(F)F)c3ncc(-c4ccc(C)s4)n3c2)cn1` [Example 31], the IC50 at P2X3 and at P2X2/3 was 1 to 100 nM throughout.

Consider `Cc1cnc(CNC(=O)c2cc(-n3nncc3C(F)F)c3ncc(-c4ccc(C)s4)n3c2)cn1` [Example 32], for which the IC50 at P2X3 and on P2X2/3 was 1 to 100 nM each time.

Turning to `CCc1cnnn1-c1cc(C(=O)NCc2cnc(C)nc2)cn2c(-c3ccc(C)s3)cnc12` [Example 33], the half-maximal inhibitory concentration (IC50) on P2X3 and on P2X2/3 was 1 to 100 nM in each case.

Consider `Cc1ccc(-c2cnc3c(-n4nncc4C4CC4)cc(C(=O)N[C@@H](C)c4nnc[nH]4)cn23)s1` [Example 34], for which the half-inhibitory concentration (IC50) at P2X3 and on P2X2/3 was 1 to 100 nM each time.

As to `COc1ncc(CNC(=O)c2cc(-n3nncc3C(F)F)c3ncc(-c4ccc(C)s4)n3c2)cn1` [Example 35], the 50% inhibitory concentration (IC50) at P2X3 and on P2X2/3 was 1 to 100 nM throughout.
